The values that follow come from paper PMC9266216, “Chemical Characterization, α-Glucosidase, α-Amylase and Lipase Inhibitory Properties of the Australian Honey Bee Propolis” (Foods, 2022).

One assay has as its target T1, human salivary α-amylase (Homo sapiens, UniProt P0DUB6).
T1 construct: purchased Sigma Aldrich
T1 sequence (P0DUB6 16-511): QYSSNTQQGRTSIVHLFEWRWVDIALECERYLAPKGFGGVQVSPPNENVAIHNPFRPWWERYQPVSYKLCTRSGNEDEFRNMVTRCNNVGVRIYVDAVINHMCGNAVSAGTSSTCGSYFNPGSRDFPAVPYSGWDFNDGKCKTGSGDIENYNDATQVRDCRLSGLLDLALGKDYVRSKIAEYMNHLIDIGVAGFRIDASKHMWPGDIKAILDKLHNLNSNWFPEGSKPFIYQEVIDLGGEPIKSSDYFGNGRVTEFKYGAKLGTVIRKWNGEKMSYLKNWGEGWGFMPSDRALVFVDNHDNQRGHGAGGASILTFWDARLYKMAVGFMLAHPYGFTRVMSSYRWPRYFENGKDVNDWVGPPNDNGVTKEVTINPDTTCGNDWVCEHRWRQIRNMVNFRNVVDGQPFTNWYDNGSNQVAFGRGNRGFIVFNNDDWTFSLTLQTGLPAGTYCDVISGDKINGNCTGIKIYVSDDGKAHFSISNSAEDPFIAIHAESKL
The assay can be described thus: α-amylase inhibition assay (CNP-G3, absorbance 405 nm). Type of assay: biochemical. The following applies: for IC50: 120 min incubation, pH 6.0, 37 °C. The method, then:
The α-amylase inhibition assay was performed in 96-well microtiter plates. In each well was added 10 μL of propolis sample dissolved in DMSO, and 90 μL of 0.1 M phosphate buffer adjusted to pH 6.0 using 2.0 M H3PO4. To the solution, 80 μL of human salivary α-amylase solution (2.0 U/mL) was added and incubated for approximately 10 min at 37 °C. The enzyme reaction was initiated by adding 20 μL of the substrate solution CNP-G3 (10 mM in phosphate buffer). […] The percentage inhibition was calculated using the same formula as described for the α-glucosidase inhibition assay.

Another assay deals with T2, porcine pancreas lipase (Sus scrofa, UniProt P00591).
T2 construct: purchased Sigma Aldrich
T2 sequence (P00591 1-450): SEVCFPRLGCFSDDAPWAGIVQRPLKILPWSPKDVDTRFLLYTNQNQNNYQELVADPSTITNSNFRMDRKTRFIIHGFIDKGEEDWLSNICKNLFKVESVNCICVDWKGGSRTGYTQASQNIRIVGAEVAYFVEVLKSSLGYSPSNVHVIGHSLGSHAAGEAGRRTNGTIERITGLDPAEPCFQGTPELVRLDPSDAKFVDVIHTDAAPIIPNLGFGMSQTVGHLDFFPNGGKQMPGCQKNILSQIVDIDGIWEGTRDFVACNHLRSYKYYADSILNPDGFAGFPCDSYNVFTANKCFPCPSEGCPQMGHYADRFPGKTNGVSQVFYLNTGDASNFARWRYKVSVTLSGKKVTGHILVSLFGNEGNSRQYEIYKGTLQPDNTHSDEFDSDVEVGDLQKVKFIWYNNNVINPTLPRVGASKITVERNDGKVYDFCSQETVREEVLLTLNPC
The experiment in a line: lipase inhibition assay (p-NPB, absorbance 405 nm). The assay is classed as biochemical. To be noted: for IC50: 60 min incubation, pH 7.4, 37 °C. The method, then:
The solvents used for extraction (ethanol—EtOH), HPLC (acetonitrile—MeCN), and LC–MS (MeCN and water—H2O) analyses were purchased from Merck. The ultra-pure water used for the HPLC analysis was from an in-house Milli-Q system.
The lipase inhibition assay was performed in 96-well microtiter plates. In each well was added 10 μL of propolis sample dissolved in DMSO and 155 μL of 0.1 M tris-HCl buffer adjusted to pH 7.4 using 1.0 M KOH. To the solution, 25 μL of lipase solution (2000 U/mL) was added and incubated for approximately 15 min at 37 °C. The enzyme reaction was initiated by adding 10 μL of the substrate solution p-NPB (100 mM in methanol). The colorimetric absorbance of the cleavage product after 60 min of incubation was measured at 405 nm, using the EnSpire microplate reader (Perkin Elmer). […] The percentage inhibition was calculated using the same formula as described for the α-glucosidase inhibition assay.

The next assay concerns the target α-glucosidase (Saccharomyces cerevisiae, UniProt P53341). The experiment in a line: biochemical. To be noted: read-out: α-Glucosidase inhibition. How it is done:
The α-glucosidase inhibition assay was performed at room temperature in 96-well microtiter plates (Sigma Aldrich, Sydney, Australia). The assays were adapted from Zhao et al., with some modifications. Briefly, in each well was added 10 μL of propolis sample at 2 mg/mL in DMSO and 90 μL of 0.1 M phosphate buffer, adjusted to pH 7.5 using 0.6 M KOH. To the solution, 80 μL of α-glucosidase solution (2.0 U/mL) was added and incubated for 10 min at room temperature. The enzyme reaction was initiated by adding 20 μL of p-NPG solution (10 mM in phosphate buffer). The colorimetric absorbance of the cleavage product (the strongly chromogenic p-nitrophenolate ion) after 30 min of incubation was measured at 405 nm using the EnSpire microplate reader (Perkin Elmer, Boston, MA, USA). […] The results were analyzed and calculated in Microsoft Excel, and expressed using the mean for each of the triplicate sets. Inhibition of the enzyme was calculated as follows: Inhibition (%)=(1−Absorbance (sample)/Absorbance (blank) )×100%)

α-glucosidase, sequence (P53341 whole entry): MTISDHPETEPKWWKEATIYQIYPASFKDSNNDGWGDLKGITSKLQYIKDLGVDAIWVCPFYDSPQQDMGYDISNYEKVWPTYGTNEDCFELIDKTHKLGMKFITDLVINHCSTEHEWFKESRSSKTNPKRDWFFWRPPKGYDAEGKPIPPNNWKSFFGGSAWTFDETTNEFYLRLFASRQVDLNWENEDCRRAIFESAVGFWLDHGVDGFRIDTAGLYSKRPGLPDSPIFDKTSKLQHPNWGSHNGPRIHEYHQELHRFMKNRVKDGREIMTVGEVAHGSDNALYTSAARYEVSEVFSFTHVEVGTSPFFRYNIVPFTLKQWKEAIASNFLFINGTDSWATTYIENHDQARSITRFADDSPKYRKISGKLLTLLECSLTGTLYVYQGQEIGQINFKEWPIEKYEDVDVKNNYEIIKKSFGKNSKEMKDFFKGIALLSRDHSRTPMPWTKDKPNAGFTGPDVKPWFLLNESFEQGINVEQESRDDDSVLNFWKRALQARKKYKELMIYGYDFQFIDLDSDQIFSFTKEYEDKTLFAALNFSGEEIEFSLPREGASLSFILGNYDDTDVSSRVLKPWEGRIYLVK

As for `CC(C)=CCC/C(C)=C/Cc1c([C@@H]2CC(=O)c3c(O)cc(O)cc3O2)ccc(O)c1O` [Compound 1, propolin D (Nymphaeol B)], the IC50 against human salivary α-amylase turned out to be 205 µM; on porcine pancreas lipase, 51.8 µM.

As for `CC(C)=CCC/C(C)=C/Cc1cc([C@@H]2CC(=O)c3c(O)cc(O)cc3O2)cc(O)c1O` [Compound 2, propolin F (Isonymphaeol B)], the half-maximal inhibitory concentration (IC50) at human salivary α-amylase came to 135 µM; on porcine pancreas lipase it was 53 µM.

Regarding `CC(C)=CCC/C(C)=C/Cc1c(O)cc2c(c1O)C(=O)C[C@@H](c1ccc(O)c(O)c1)O2` [Compound 3, propolin C (Nymphaeol A)], the half-maximal inhibitory concentration (IC50) is 204 µM against human salivary α-amylase and 30.3 µM against porcine pancreas lipase.

For the compound `CC(C)=CCC/C(C)=C/Cc1cc([C@@H]2CC(=O)c3c(O)cc(O)cc3O2)ccc1O` [Compound 4, propolin H (3′-geranyl-naringenin)], the 50% inhibitory concentration (IC50) was 52.5 µM against human salivary α-amylase and 33.1 µM against porcine pancreas lipase.

Take `CC(C)=CCC/C(C)=C/Cc1c([C@@H]2CC(=O)c3c(cc(O)c(CC=C(C)C)c3O)O2)ccc(O)c1O` [Compound 5, propolin G (Nymphaeol C)]: the IC50 was 246 µM on human salivary α-amylase and 43.4 µM on porcine pancreas lipase.

For the compound `CC(C)=CCC/C(C)=C/Cc1c(-c2oc3cc(O)cc(O)c3c(=O)c2O)ccc(O)c1O` [Compound 6, solophenol D], the 50% inhibitory concentration (IC50) on human salivary α-amylase was found to be 142 µM; at porcine pancreas lipase it was 32.3 µM.

On to `O=C1C[C@@H](c2ccc(O)c(O)c2)Oc2cc(O)cc(O)c21` [Compound 7, eriodictyol, reference compound], for which the inhibition at 250 µM at α-glucosidase turned out to be 13%; against human salivary α-amylase, 41%. This compound returned an inhibition at 83 µM against porcine pancreas lipase of 12%.

Turning to `O=C1C[C@@H](c2ccc(O)cc2)Oc2cc(O)cc(O)c21` [Compound 8, naringenin, reference compound], at α-glucosidase, the inhibition at 250 µM was 40%. On human salivary α-amylase, it took 121 µM to reach half-maximal inhibition (IC50) and the inhibition at 250 µM was determined as 73%. Also, at 83 µM the inhibition at porcine pancreas lipase was 24%.

On to `O=c1c(O)c(-c2ccc(O)c(O)c2)oc2cc(O)cc(O)c12` [Compound 9, quercetin, reference compound], for which, on human salivary α-amylase, the midpoint of inhibition, the IC50, lay at 17.4 µM. Further, the inhibition at 83 µM on porcine pancreas lipase was found to be 37%.
